Experimental data published in paper PMC7876106 (Scientific Reports, 2021).

Columns and labels:
TERRA and TRF2 complex = experiment: FP inhibition assay, TRF2 GAR binding to TERRA; conditions: for IC50: FP, 10 nM peptide, 5 μM oligo; for Selectivity Ratio IC50 (Tel DNA/TERRA): ratio of FP IC50 values
Method: All the nucleic acids, peptides and chemicals were dissolved in buffer containing 20 mM HEPES pH7.5, 150 mM salt (KCl, NaCl, LiCl) at the stock concentration of 1 mM. For peptide and nucleic acid interactions, 25μL of each nucleic acids with a sequential twofold dilutions starting from 50 μM was added into each well of 96-well plate followed by adding 25μL of 10 nM FITC labeled TRF2 peptide. For compounds and nucleic acid interactions, 20μL of each compounds with a sequential twofold dilutions starting from 50 μM were added into each well of 96-well plate followed by adding 5μL of 20 ng/mL tRNA and 25μL of 10 nM FAM labeled nucleic acids. For inhibition assay, 5μL FITC labeled TRF2 GAR peptide (10 nM final concentration) and 10 μL oligos (5 μM final concentration) were mixed, followed by adding 5μL of each compound with a sequential twofold dilutions starting from 50 μM into each well of 384-well plate. All components were mixed thoroughly, and the plate was incubated at room temperature for 1 h before placing in an Envision Plate Reader for reading at 495/520 nm. All data curves were fitted using Prism 8.0.

[1] = system: TRF2 binding to telomere DNA; experiment: DNA ChIP assay of TRF2 binding to telomere DNA in LOX cells; format: cell-based, human; conditions: 2 μM, 2 days
Method: The lysates were sonicated, cleared by centrifugation, and supernatants were diluted 10 fold into IP Buffer (0.01% SDS, 1.1% Triton X-100, 1.2mM EDTA, 16.7mM Tris pH 8.1, 167mM NaCl, protease inhibitors cocktail, 50U/ml SUPERase•in) for IP reaction with rabbit IgG (Santa Cruz Biotechnology) or rabbit polyclonal anti-TRF2 (Pocono Rabbit Farm) at 4 ° C overnight. Each immune complex was collected by Dynal A beads (Invitrogen), washed five times (1 ml wash, 10 mins each) in ChIP related wash buffer at 4 ° C, eluted by addition of 200µl Elution buffer (10mM Tris, pH 8.0, 5mM EDTA, 1% SDS, 50U/ml SUPERase.In) at 70 °C for 20 mins, and the elutes were placed at 70 °C for 2 hrs to reverse cross-linking. […]
DNA ChIP assays was performed as described previously 3 with minor modifications. Briefly, 1 x 10^7 LOX cells treated with indicated chemicals (2 µM) for 48 hrs were subject to ChIP analysis and immunoprecipitated DNA was assayed by DNA dot-blot using 32P-labeled (TTAGGG)4 or Alu probe. […]

[2] = system: nascent TERRA transcripts; experiment: Nascent RNA capture (EU, Click-iT) and RT-qPCR for TERRA in LOX cells; format: cell-based, human; conditions: 2 μM, 48 h, then EU 4 h
Method: Mei et al, 2020 TERRA Requires TRF2 GAR Domain
Nascent RNA analysis was performed as described previously 2 by the use of Click-iT Nascent RNA capture kit (Life Technologies) with some modifications. Briefly, LOX cells were treated with 2 µM of chemicals, or LOX TRF2DB cells were induced with 1 µg/ml of doxycycline for 48 hrs, and then treated cells were pulse labeled 0.2 mM EU for additional 4 hrs. Total RNA was prepared and biotinylated by Click reaction. Nascent RNA was purified by using Streptavidin T1 magnetic beads and was subject to cDNA synthesis using SuperScript VILO cDNA synthesis kit (Life Technologies). Relative Nascent RNA expression was determined using DCT methods relative to control gene U1 or Actin. Primer sequences used in qPCR analysis of 10q, 13q, XYq, and 18q TERRA were described previously 2.
Reference (Supplmentary Methods)
1 Deng, Z., Norseen, J., Wiedmer, A., Riethman, H. & Lieberman, P. M. TERRA RNA binding to TRF2 facilitates heterochromatin formation and ORC recruitment at telomeres. Mol […]
2 Deng, Z. et al. HSV-1 remodels host telomeres to facilitate viral replication. Cell Rep 9,
3 Deng, Z. et al. A role for CTCF and cohesin in subtelomere chromatin organization, TERRA transcription, and telomere end protection. EMBO J 31, 4165-4178, […]

[3] = system: TERRA antisense (5'-fluorescein) (RNA, single strand) CCCUAACCCUAACCCUAACCCUAA; experiment: fluorescence polarization; conditions: 150 mM salt (KCl, NaCl or LiCl; which not stated); 20 mM HEPES pH 7.5, room temperature, tRNA competitor; dilutions from 50 μM compound

Structure (SMILES) | IC50 (TERRA and TRF2 complex) | Selectivity Ratio IC50 (Tel DNA/TERRA) (TERRA and TRF2 complex) | effect on TRF2 binding to telomere DNA [1] | nascent TERRA transcripts from chromosomes 10q, XYq and 18q [2] | binding [3]
CCc1c(C)c2cc3nc(cc4nc(cc5c(CC)c(C)c(cc1[nH]2)n5C)C(C)=C4CCC(=O)O)C(CCC(=O)O)=C3C [NMM, N-methyl mesoporphyrin IX] | 420 nM | 2.38 | Neither NMM, PP, nor BRACO-19 had any significant effect | significant reduction (~ two fold) | no
CN(C)c1ccc(Nc2c3ccc(NC(=O)CCN4CCCC4)cc3nc3cc(NC(=O)CCN4CCCC4)ccc23)cc1 [BRACO-19] | 240 nM | 0.17 | Neither NMM, PP, nor BRACO-19 had any significant effect | significant reduction (~ two fold) | no
